In ChEMBL document CHEMBL4507264, “Data for DCP probe BAY-7598” (2021):

Key:
Details in all cases: Compound concentration 1000.0 nM
[1] = molecular target: Tyrosine-protein kinase Lck (Homo sapiens) (UniProt P06239)
[2] = molecular target: Cyclin-dependent kinase 19 (Homo sapiens) (UniProt Q9BWU1)
[3] = molecular target: Tyrosine-protein kinase JAK2 (Homo sapiens) (UniProt O60674)
[4] = molecular target: Cyclin-dependent kinase 11B (Homo sapiens) (UniProt P21127)
[5] = molecular target: Non-receptor tyrosine-protein kinase TYK2 (Homo sapiens) (UniProt P29597)
[6] = molecular target: Cyclin-dependent kinase 4 (Homo sapiens) (UniProt P11802)
[7] = molecular target: Glycogen synthase kinase-3 alpha (Homo sapiens) (UniProt P49840)
[8] = molecular target: Serine/threonine-protein kinase SIK1 (Homo sapiens) (UniProt P57059)
[9] = molecular target: Tyrosine-protein kinase Yes (Homo sapiens) (UniProt P07947)
[10] = molecular target: Ribosomal protein S6 kinase alpha-2 (Homo sapiens) (UniProt Q15349)
[11] = molecular target: Mitotic checkpoint serine/threonine-protein kinase BUB1 (Homo sapiens) (UniProt O43683)
[12] = molecular target: Serine/threonine-protein kinase 38-like (Homo sapiens) (UniProt Q9Y2H1)
Sequence of Serine/threonine-protein kinase 38-like (Homo sapiens) (Q9Y2H1 2-464 limits assumed): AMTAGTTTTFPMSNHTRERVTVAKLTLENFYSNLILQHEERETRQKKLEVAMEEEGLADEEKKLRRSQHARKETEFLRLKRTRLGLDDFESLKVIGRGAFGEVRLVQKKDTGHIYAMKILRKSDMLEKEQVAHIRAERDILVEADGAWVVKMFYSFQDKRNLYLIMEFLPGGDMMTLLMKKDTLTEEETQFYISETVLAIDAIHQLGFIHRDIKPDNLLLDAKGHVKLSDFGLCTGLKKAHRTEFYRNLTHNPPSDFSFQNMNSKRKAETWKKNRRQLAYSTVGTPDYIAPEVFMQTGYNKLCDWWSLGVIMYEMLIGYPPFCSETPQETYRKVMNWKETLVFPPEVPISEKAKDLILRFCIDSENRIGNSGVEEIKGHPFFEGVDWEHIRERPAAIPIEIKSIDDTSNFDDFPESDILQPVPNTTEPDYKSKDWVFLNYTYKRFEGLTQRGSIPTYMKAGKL

[13] = molecular target: Phosphatidylinositol 3-kinase catalytic subunit type 3 (Homo sapiens) (UniProt Q8NEB9)
[14] = molecular target: Serine/threonine-protein kinase PAK 6 (Homo sapiens) (UniProt Q9NQU5)
[15] = molecular target: Receptor tyrosine-protein kinase erbB-2 (Homo sapiens) (UniProt P04626)
Sequence of Receptor tyrosine-protein kinase erbB-2 (Homo sapiens) (P04626 whole entry): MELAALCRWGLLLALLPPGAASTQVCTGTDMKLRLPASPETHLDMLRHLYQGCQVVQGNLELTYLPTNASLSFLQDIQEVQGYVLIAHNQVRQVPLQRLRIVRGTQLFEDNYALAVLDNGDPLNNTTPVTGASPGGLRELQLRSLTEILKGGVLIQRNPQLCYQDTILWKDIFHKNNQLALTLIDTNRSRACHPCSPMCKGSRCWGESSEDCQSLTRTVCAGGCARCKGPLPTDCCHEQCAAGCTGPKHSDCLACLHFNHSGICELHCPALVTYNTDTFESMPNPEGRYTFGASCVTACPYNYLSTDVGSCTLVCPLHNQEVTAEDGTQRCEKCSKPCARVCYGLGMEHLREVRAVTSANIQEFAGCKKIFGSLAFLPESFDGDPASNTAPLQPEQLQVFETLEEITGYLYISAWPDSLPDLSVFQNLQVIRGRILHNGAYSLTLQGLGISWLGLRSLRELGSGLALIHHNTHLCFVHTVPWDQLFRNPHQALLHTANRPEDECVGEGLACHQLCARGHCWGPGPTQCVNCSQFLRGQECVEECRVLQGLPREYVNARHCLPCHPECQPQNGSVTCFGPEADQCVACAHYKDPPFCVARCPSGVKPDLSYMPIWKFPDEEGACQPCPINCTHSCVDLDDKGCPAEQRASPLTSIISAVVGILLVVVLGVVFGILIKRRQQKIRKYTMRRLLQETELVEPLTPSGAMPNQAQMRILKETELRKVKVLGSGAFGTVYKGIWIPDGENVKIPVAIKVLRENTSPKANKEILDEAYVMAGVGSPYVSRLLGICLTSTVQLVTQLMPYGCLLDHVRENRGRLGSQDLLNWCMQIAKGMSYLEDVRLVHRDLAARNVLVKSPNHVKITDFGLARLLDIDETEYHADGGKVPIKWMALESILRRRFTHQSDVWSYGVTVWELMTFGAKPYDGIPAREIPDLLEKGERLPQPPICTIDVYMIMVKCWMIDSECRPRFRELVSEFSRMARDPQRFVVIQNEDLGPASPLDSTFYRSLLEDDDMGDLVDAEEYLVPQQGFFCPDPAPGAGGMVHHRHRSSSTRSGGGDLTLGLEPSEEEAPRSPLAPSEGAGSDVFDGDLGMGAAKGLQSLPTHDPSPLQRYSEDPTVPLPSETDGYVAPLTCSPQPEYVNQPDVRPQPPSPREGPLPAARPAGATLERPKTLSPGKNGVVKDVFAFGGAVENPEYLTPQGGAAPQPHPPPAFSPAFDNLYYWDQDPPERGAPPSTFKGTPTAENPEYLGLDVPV

[16] = molecular target: Cyclin-dependent kinase 16 (Homo sapiens) (UniProt Q00536)
Sequence of Cyclin-dependent kinase 16 (Homo sapiens) (Q00536 whole entry): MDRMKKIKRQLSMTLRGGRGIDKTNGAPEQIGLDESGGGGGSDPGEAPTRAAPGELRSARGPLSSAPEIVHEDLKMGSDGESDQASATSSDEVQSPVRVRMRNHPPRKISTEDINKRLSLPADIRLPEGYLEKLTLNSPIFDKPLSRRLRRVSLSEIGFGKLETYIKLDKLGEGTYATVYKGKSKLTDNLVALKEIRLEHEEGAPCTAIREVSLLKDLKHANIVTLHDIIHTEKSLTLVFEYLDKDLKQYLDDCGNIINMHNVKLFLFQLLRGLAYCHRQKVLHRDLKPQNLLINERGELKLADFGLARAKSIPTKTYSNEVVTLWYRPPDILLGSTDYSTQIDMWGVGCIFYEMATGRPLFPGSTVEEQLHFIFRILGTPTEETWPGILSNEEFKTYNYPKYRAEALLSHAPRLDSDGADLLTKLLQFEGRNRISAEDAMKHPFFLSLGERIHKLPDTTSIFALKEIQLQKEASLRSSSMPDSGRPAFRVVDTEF

[17] = molecular target: Protein kinase C eta type (Homo sapiens) (UniProt P24723)
[18] = molecular target: Cyclin-dependent kinase 9 (Homo sapiens) (UniProt P50750)
[19] = system: Phosphatidylinositol 4,5-bisphosphate 3-kinase catalytic subunit alpha isoform (Homo sapiens), P42336 [H1047L]
[20] = molecular target: Protein kinase C delta type (Homo sapiens) (UniProt Q05655)
[21] = molecular target: Mitogen-activated protein kinase kinase kinase 13 (Homo sapiens) (UniProt O43283)
[22] = molecular target: Serine/threonine-protein kinase WNK4 (Homo sapiens) (UniProt Q96J92)
[23] = molecular target: Ribosomal protein S6 kinase alpha-3 (Homo sapiens) (UniProt P51812)
[24] = molecular target: Tyrosine-protein kinase JAK1 (Homo sapiens) (UniProt P23458)
Sequence of Tyrosine-protein kinase JAK1 (Homo sapiens) (P23458 whole entry): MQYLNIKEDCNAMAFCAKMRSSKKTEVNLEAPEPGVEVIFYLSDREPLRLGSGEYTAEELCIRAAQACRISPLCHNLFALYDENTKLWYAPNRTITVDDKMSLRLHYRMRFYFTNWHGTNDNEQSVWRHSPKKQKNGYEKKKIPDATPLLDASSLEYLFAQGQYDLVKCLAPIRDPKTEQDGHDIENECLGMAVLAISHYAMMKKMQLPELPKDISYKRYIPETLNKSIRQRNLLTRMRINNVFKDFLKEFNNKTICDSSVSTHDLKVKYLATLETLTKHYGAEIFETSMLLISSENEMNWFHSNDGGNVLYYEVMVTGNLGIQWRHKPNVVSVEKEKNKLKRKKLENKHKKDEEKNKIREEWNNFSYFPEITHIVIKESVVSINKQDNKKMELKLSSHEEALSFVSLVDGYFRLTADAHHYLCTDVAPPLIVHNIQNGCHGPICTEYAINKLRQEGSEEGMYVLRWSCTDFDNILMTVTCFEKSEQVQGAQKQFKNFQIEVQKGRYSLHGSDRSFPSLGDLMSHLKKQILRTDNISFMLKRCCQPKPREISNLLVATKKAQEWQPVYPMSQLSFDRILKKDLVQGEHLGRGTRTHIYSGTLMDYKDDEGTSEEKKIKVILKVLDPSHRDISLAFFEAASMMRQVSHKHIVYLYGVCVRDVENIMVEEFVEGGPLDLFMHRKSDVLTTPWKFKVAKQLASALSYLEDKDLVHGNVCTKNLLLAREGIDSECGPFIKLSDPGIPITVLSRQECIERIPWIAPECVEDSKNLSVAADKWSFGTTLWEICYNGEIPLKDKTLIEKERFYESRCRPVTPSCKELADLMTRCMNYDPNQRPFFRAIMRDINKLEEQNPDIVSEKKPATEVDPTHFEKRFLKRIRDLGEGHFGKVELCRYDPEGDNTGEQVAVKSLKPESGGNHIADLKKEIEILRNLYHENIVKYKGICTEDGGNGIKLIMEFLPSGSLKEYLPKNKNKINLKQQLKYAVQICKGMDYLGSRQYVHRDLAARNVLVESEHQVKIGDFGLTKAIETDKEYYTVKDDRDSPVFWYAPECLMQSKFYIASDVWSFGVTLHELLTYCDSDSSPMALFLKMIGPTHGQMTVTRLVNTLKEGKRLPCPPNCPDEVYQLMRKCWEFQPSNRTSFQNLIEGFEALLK

[25] = molecular target: Ribosomal protein S6 kinase alpha-1 (Homo sapiens) (UniProt Q15418)
[26] = molecular target: Calcium/calmodulin-dependent protein kinase type 1 (Homo sapiens) (UniProt Q14012)
[27] = molecular target: Insulin receptor (Homo sapiens) (UniProt P06213)
[28] = molecular target: Mitogen-activated protein kinase kinase kinase 3 (Homo sapiens) (UniProt Q99759)
[29] = molecular target: Serine/threonine-protein kinase PRP4 homolog (Homo sapiens) (UniProt Q13523)
[30] = molecular target: STE20-like serine/threonine-protein kinase (Homo sapiens) (UniProt Q9H2G2)
[31] = molecular target: Phosphatidylinositol 4,5-bisphosphate 3-kinase catalytic subunit delta isoform (Homo sapiens) (UniProt O00329)
[32] = molecular target: Receptor-interacting serine/threonine-protein kinase 4 (Homo sapiens) (UniProt P57078)
Sequence of Receptor-interacting serine/threonine-protein kinase 4 (Homo sapiens) (P57078 whole entry): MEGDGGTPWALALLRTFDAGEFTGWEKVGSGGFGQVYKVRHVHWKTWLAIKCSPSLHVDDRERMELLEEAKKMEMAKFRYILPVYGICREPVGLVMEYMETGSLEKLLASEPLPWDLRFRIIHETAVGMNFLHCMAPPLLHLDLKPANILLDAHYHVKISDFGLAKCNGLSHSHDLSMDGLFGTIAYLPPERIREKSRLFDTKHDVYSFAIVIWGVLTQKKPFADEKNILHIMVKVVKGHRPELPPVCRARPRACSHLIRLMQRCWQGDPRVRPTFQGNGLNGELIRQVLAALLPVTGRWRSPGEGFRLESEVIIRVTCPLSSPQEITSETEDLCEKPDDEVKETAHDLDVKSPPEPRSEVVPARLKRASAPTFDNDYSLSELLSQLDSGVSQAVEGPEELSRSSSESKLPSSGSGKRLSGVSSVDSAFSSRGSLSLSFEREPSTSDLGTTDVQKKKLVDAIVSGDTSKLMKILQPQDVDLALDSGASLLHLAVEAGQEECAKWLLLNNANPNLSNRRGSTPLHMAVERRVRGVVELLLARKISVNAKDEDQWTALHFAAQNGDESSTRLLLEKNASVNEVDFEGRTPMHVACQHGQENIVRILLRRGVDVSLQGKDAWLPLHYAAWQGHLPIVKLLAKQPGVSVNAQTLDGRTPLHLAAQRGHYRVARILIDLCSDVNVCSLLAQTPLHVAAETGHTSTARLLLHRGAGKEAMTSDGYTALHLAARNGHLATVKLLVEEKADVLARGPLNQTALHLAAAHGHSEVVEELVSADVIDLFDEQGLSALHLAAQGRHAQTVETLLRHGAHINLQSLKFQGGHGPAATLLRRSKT

[33] = molecular target: Phosphatidylinositol 4-kinase beta (Homo sapiens) (UniProt Q9UBF8)
[34] = molecular target: Serine/threonine-protein kinase DCLK2 (Homo sapiens) (UniProt Q8N568)
[35] = molecular target: Tyrosine-protein kinase ABL1 (Homo sapiens) (UniProt P00519)
[36] = molecular target: Misshapen-like kinase 1 (Homo sapiens) (UniProt Q8N4C8)
[37] = molecular target: Interleukin-1 receptor-associated kinase 4 (Homo sapiens) (UniProt Q9NWZ3)
[38] = molecular target: Serine/threonine-protein kinase 24 (Homo sapiens) (UniProt Q9Y6E0)
[39] = molecular target: RAC-gamma serine/threonine-protein kinase (Homo sapiens) (UniProt Q9Y243)
Sequence of RAC-gamma serine/threonine-protein kinase (Homo sapiens) (Q9Y243 whole entry): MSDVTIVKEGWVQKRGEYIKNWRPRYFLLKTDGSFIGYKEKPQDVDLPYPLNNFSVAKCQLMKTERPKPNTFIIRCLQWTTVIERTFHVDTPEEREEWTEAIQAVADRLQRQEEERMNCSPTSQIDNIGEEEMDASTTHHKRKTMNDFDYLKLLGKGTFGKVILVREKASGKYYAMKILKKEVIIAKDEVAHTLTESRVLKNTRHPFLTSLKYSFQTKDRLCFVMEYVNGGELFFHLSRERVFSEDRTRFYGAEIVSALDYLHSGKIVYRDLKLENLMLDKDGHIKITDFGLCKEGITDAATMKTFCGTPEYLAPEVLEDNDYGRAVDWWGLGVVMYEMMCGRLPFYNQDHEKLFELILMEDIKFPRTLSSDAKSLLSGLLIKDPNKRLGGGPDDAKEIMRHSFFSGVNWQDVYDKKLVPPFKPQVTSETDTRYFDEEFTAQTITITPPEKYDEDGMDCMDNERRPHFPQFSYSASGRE

[40] = molecular target: Dual specificity mitogen-activated protein kinase kinase 4 (Homo sapiens) (UniProt P45985)
Sequence of Dual specificity mitogen-activated protein kinase kinase 4 (Homo sapiens) (P45985 whole entry): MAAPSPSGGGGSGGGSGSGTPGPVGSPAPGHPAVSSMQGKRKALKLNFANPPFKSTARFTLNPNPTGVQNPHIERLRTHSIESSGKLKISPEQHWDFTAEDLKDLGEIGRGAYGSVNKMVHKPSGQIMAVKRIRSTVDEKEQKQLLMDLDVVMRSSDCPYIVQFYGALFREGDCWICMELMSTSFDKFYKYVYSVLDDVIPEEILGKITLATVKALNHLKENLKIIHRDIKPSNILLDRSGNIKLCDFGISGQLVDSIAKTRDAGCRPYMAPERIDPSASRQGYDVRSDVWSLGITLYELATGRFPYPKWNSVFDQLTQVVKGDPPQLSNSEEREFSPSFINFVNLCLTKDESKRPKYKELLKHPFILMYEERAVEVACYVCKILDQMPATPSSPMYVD

[41] = system: Proto-oncogene tyrosine-protein kinase receptor Ret (Homo sapiens), P07949 [M918T]
[42] = molecular target: Serine/threonine-protein kinase SBK1 (Homo sapiens) (UniProt Q52WX2)
[43] = molecular target: Proto-oncogene tyrosine-protein kinase receptor Ret (Homo sapiens) (UniProt P07949)
[44] = molecular target: Ribosomal protein S6 kinase alpha-6 (Homo sapiens) (UniProt Q9UK32)
[45] = molecular target: Casein kinase I isoform gamma-1 (Homo sapiens) (UniProt Q9HCP0)

Measured: residual activity

O=C(O)[C@@H]1[C@@H](Cn2nnc3ccccc3c2=O)CC[C@H]1C(=O)c1ccc(OCCC2CCOCC2)cc1 [BAY-694]
inactive: [1] 93% | [2] 100% | [3] 74% | [4] 99% | [5] 100% | [6] 83% | [7] 93% | [8] 91% | [9] 100% | [10] 100% | [11] 73% | [12] 100% | [13] 96% | [14] 99% | [15] 100% | [16] 100% | [17] 100% | [18] 100% | [19] 84% | [20] 100% | [21] 70% | [22] 75% | [23] 100% | [24] 100% | [25] 100% | [26] 92% | [27] 85% | [28] 100% | [29] 80% | [30] 88% | [31] 99% | [32] 81% | [33] 83% | [34] 87% | [35] 79% | [36] 100% | [37] 76% | [38] 99% | [39] 100% | [40] 100% | [41] 100% | [42] 100% | [43] 100% | [44] 100% | [45] 99%

O=C(O)[C@H]1[C@H](Cn2nnc3ccccc3c2=O)CC[C@@H]1C(=O)c1ccc(OCCC2CCOCC2)cc1 [BAY-7598]
inactive: [1] 78% | [2] 100% | [3] 75% | [4] 88% | [5] 100% | [6] 89% | [7] 74% | [8] 100% | [9] 100% | [10] 78% | [11] 85% | [12] 96% | [13] 93% | [14] 100% | [15] 100% | [16] 98% | [17] 89% | [18] 72% | [19] 71% | [20] 100% | [21] 96% | [22] 91% | [23] 81% | [24] 100% | [25] 90% | [26] 100% | [27] 78% | [28] 100% | [29] 67% | [30] 96% | [31] 89% | [32] 80% | [33] 93% | [34] 79% | [35] 89% | [36] 100% | [37] 76% | [38] 90% | [39] 73% | [40] 97% | [41] 76% | [42] 68% | [43] 82% | [44] 97% | [45] 94%
